Drawing on US8232406B2, “c-MET protein kinase inhibitors” (Vertex Pharmaceuticals Incorporated, priority 2006, dated 2012), this text covers Ki for 68 compounds.

This experiment deals with c-MET (Homo sapiens, UniProt P08581). Put plainly: Ki determination for the inhibition of c-MET (standard radiometric 33P-ATP kinase assay, polyE4Y substrate). The format is biochemical. The note with it: 1.0 nM c-Met, 35 μM ATP, 0.5 mg/mL polyE4Y, 20 min; competitive tight-binding fit. The procedure:
Ki Determination for the Inhibition of c-MET
Compounds of the invention were screened for their ability to inhibit c-MET kinase activity using a standard radiometric assay. Briefly, in this kinase assay the transfer of the terminal ^33P-phosphate in ^33P-ATP to substrate polyE4Y is interrogated. The assay was carried out in 96-well plates to a final volume of 100 μL per well containing 1.0 nM c-Met, 100 mM HEPES (pH 7.5), 10 mM MgCl2, 25 mM NaCl, 0.01% BSA, 1 mM DTT, 0.5 mg/mL polyE4Y, and 35 μM ATP. Accordingly, compounds of the invention were dissolved in DMSO to make 10 mM initial stock solutions. Serial dilutions in DMSO were then made to obtain the final solutions for the assay. A 1.5 μL aliquot of DMSO or inhibitor in DMSO was added to each well. The reaction was initiated by the addition of ^33P-ATP and polyE4Y (obtained from Sigma). After 20 min, the reaction was quenched with 50 μL of 30% trichloroacetic acid (TCA) containing 4 mM ATP. The reaction mixture was transferred to the 0.66 mm GF filter plates (Corning) and washed three times with 5% TCA. Following the addition of 50 μL of Ultimate Gold™ high efficiency scintillant (Packard Bioscience), the samples were counted in a Packard TopCount NXT Microplate Scintillation and Luminescence Counter (Packard BioScience). The Ki values were calculated using Microsoft Excel Solver macros to fit the data to the kinetic model for competitive tight-binding inhibition.

Molecules are shown by their SMILES. Bounds are passed on as bounds.

c-MET, sequence (P08581 25-1390): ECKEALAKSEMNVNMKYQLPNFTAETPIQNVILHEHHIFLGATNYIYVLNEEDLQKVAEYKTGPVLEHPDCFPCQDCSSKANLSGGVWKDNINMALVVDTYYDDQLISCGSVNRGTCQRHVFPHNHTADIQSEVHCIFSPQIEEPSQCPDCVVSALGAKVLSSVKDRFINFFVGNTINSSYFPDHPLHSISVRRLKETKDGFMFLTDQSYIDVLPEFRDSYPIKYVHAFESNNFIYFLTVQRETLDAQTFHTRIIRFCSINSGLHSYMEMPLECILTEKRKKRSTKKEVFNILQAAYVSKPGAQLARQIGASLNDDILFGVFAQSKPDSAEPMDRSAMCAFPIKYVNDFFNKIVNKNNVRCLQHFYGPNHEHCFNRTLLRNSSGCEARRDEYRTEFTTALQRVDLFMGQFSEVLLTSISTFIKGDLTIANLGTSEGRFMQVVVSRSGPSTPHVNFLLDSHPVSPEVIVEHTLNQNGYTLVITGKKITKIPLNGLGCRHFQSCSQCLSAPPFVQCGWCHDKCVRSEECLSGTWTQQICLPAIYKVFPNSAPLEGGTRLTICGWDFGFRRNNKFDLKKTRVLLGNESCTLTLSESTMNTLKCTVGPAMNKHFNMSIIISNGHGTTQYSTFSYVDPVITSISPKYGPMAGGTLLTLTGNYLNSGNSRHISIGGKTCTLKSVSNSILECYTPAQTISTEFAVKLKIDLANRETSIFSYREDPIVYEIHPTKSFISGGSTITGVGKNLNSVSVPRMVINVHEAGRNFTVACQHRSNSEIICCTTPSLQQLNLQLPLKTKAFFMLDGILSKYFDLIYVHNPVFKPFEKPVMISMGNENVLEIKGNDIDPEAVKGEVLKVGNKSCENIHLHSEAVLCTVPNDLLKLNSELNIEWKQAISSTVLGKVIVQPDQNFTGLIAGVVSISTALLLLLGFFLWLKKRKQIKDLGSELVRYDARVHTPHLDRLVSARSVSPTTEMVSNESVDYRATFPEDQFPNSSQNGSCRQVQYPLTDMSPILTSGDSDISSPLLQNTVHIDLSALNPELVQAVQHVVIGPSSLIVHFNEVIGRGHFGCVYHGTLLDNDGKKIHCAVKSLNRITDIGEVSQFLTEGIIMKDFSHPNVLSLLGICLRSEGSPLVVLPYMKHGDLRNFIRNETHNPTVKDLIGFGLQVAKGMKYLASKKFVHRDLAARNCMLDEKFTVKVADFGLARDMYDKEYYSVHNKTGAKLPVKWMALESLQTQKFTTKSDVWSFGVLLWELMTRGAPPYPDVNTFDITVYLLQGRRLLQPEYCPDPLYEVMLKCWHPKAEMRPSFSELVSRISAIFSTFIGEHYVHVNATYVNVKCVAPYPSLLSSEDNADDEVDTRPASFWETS

`Nc1ncc(-c2ccc(CN3CCCC3)cc2)cc1-c1nnnn1-c1c(F)ccc(F)c1F` [I-A-380] showed an inhibition constant Ki of no more than 100 nM.
The value for `Nc1ncc(-c2cccc(NC(=O)Nc3cccnc3)c2)cc1-c1nnnn1-c1cccc(F)c1F` [I-A-272] was no more than 100 nM; that for `Nc1ncc(-c2cc(C(=O)O)cs2)cc1-c1nnnn1-c1cccc(F)c1F` [I-A-185] was 100 to 1000 nM; that for `NC(=O)[C@@H]1CCCN1Cc1ccc(-c2cnc(N)c(-c3nnnn3-c3cccc(F)c3F)c2)cc1` [I-A-132] was no more than 100 nM.
The value for `Nc1ncc(-c2ccc(OCCO)cc2)cc1-c1nnnn1-c1cccc(F)c1F` [I-A-283] was no more than 100 nM; that for `CN(C)CCn1cc(-c2cnc(N)c(-c3nc4cnccc4n3-c3cccc(F)c3F)c2)cn1` [I-D-9] was no more than 100 nM.
In the case of `CC(N)c1ccc(-c2cnc(N)c(-c3nnnn3-c3cccc(F)c3F)c2)cn1` (centres unmarked) [I-A-129] it was no more than 100 nM; in that of `Nc1ncc(-c2ccc(CN3CCC(CO)CC3)cc2)cc1-c1nnnn1-c1cccc(Cl)c1Cl` [I-A-96], no more than 100 nM.
`CC(=O)Nc1cccc(-c2cnc(N)c(-c3nnnn3-c3cc(F)ccc3F)c2)c1` [I-A-567]: the Ki was in the range of 100 to 1000 nM.
In the case of `Nc1ncc(C2=CCN(C(=O)C3CCCOC3)CC2)cc1-c1nnnn1-c1cccc(F)c1F` (centres unmarked) [I-A-522] it was no more than 100 nM; in that of `CC(C)c1cccc(-c2cnc(N)c(-c3nnnn3-c3cccc(F)c3F)c2)c1` [I-A-236], 100 to 1000 nM; in that of `CC(=O)N1CCC(n2cc(-c3cnc(N)c(-c4nnnn4-c4cccc(F)c4Cl)c3)cn2)CC1` [I-A-392], 100 to 1000 nM.
The value for `Nc1ncc(-c2ccc(NC(=O)CN3CCC[C@H]3CO)cc2)cc1-c1nnnn1-c1cccc(F)c1F` [I-A-160] was 100 to 1000 nM; that for `CC(=O)c1cccc(-c2cnc(N)c(-c3nncn3-c3cccc(F)c3F)n2)c1` [I-A-29] was 100 to 1000 nM.
`Nc1ncc(C2=CCC(N)CC2)cc1-c1nnnn1-c1cccc(F)c1F` (centres unmarked) [I-A-158] returned a Ki of no more than 100 nM.
In the case of `Nc1ncc(-c2ccc(CN3CCCC3)cc2)cc1-c1nc2cccnc2n1-c1cccc(Cl)c1F` [I-D-14] it was 100 to 1000 nM.
In the case of `Nc1ncc(-c2ccc(CN3CCCC3)cc2)cc1-c1nccn1-c1cccc(Cl)c1Cl` [I-A-393] it was no more than 100 nM.
In the case of `Cc1c(F)cccc1-n1nnnc1-c1cc(-c2ccc(CN3CCCC3)cc2)cnc1N` [I-A-598] it was 100 to 1000 nM; in that of `CC(=O)Nc1cccc(-c2cnc(N)c(-c3nnnn3-c3cccc(Cl)c3C)c2)c1` [I-A-565], 100 to 1000 nM.
`Nc1ncc(-c2cnn(C3CCN(CC4CC4)CC3)c2)cc1-c1nnnn1-c1cccc(F)c1F` [I-A-449] returned a Ki of no more than 100 nM.
In the case of `CC(=O)Nc1ccc(-c2cnc(N)c(-c3nnnn3-c3cc(Cl)cc(Cl)c3)c2)cc1` [I-A-587] it was 100 to 1000 nM; in that of `Nc1ncc(-c2cnn(C3COCOC3)c2)cc1-c1nnnn1-c1cccc(F)c1F` [I-A-432], no more than 100 nM.
In the case of `Nc1ncc(-c2ccc(CN3CCCC3)cc2)cc1-c1nnnn1-c1cc(F)cc(F)c1` [I-A-603] it was 100 to 1000 nM.
In the case of `CN(C)Cc1ccc(-c2cnc(N)c(-c3nnnn3-c3cc(F)cc(F)c3Cl)c2)cc1` [I-A-605] it was 100 to 1000 nM.
As for `Nc1ncc(-c2ccc(NC(=O)CN3CCOCC3)cc2)cc1-c1nnnn1-c1cccc(F)c1F` [I-A-163], the Ki lay within 100 to 1000 nM.
In the case of `CN1CCN(c2ccc(-c3cnc(N)c(-c4nnnn4-c4cccc(F)c4F)c3)cc2)CC1` [I-A-19] it was no more than 100 nM; in that of `Nc1ncc(-c2cnn(C3CCNCC3)c2)cc1-c1nnnn1-c1cccc(Cl)c1Cl` [I-A-371], no more than 100 nM; in that of `Nc1ncc(-c2cnn([C@@H]3CCOC3)c2)cc1-c1nnnn1-c1cccc(Cl)c1F` [I-A-420], no more than 100 nM.
The compound `Nc1ccc(-c2cnc(N)c(-c3nnnn3-c3cccc(F)c3F)c2)cc1F` [I-A-286] registered a Ki of no more than 100 nM.
`CC(C)CN1CCC(n2cc(-c3cnc(N)c(-c4nnnn4-c4cccc(Cl)c4F)c3)cn2)CC1` [I-A-475]: the inhibition constant (Ki) is no more than 100 nM.
In the case of `Nc1ncc(-c2cnn([C@H]3CCCNC3)c2)nc1-c1nnnn1-c1cccc(Cl)c1F` [I-A-658], the Ki was no more than 100 nM.
Compound `N#Cc1ccc(-c2cnc(N)c(-c3nnnn3-c3cccc(Cl)c3Cl)c2)cc1` [I-A-89] registered a Ki of 100 to 1000 nM.
In the case of `Nc1ncc(-c2ccc(CN3CCCC3)cc2)cc1-c1nnnn1-c1cc(F)ccc1Cl` [I-A-596] it was 100 to 1000 nM; in that of `Nc1nc2ccc(-c3cnc(N)c(-c4nnnn4-c4cccc(F)c4F)c3)cc2s1` [I-A-308], no more than 100 nM; in that of `Nc1ncc(-c2ccc(S(N)(=O)=O)s2)cc1-c1nnnn1-c1cccc(F)c1F` [I-A-187], no more than 100 nM.
Turning to `Cc1ccccc1-c1cnc(N)c(-c2nnnn2-c2cccc(F)c2F)c1` [I-A-241], the inhibition constant (Ki) is 100 to 1000 nM.
Compound `Nc1ncc(-c2ccc(CN3CCC[C@H]3CO)cc2)cc1-c1nnnn1-c1cccc(F)c1F` [I-A-133] yielded an inhibition constant (Ki) of no more than 100 nM.
In the case of `Nc1ncc(-c2ccncc2)nc1-c1nnc(O)n1-c1cccc(F)c1F` [I-A-15] it was 100 to 1000 nM; in that of `CCN(CCO)Cc1ccc(-c2cnc(N)c(-c3nnnn3-c3cccc(F)c3F)c2)cc1` [I-A-146], no more than 100 nM.
The value for `CCC(CC)C(=O)Nc1ccc(-c2cnc(N)c(-c3nnnn3-c3cccc(F)c3F)c2)cc1` [I-A-197] was no more than 100 nM; that for `Nc1ncc(-c2cnn(CC(=O)N3CCCC3)c2)cc1-c1nnnn1-c1cccc(F)c1F` [I-A-364] was 100 to 1000 nM; that for `CC(=O)N1CCC[C@H]1C(=O)N1CC=C(c2cnc(N)c(-c3nnnn3-c3cccc(F)c3F)c2)CC1` [I-A-641] was 100 to 1000 nM.
As for `Nc1ncc(-c2ccc(CO)cc2)cc1-c1nnnn1-c1cccc(Cl)c1Cl` [I-A-90], the inhibition constant Ki was no more than 100 nM.
The value for `Nc1ncc(-c2ccc(CN3CCC(O)CC3)cc2)cc1-c1nnnn1-c1cccc(Cl)c1Cl` [I-A-97] was no more than 100 nM; that for `Nc1ncc(C2=CCN(C(=O)O[C@H]3CCOC3)CC2)cc1-c1nnnn1-c1cccc(F)c1F` [I-A-526] was no more than 100 nM; that for `Nc1ncc(-c2cnn([C@H]3CCCNC3)c2)nc1-c1nnnn1-c1cccc(F)c1F` [I-A-655] was no more than 100 nM.
As to `CC(=O)N1CCC(n2cc(-c3cnc(N)c(-c4nnc(C)n4-c4cccc(Cl)c4F)c3)cn2)CC1` [I-A-457], the Ki is no more than 100 nM.
The value for `CCCN1CCC(n2cc(-c3cnc(N)c(-c4nnnn4-c4cccc(F)c4F)c3)nn2)CC1` [I-A-482] was no more than 100 nM; that for `COCCOC(=O)Nc1ccc(-c2cnc(N)c(-c3nnnn3-c3cccc(F)c3F)c2)cc1` [I-A-277] was no more than 100 nM.
In turn, `Nc1ncc(-c2cnn(C3CCCNCC3)c2)cc1-c1nnnn1-c1cccc(Cl)c1F` (centres unmarked) [I-A-651] displayed an inhibition constant Ki of no more than 100 nM.
The value for `Nc1ncc(-c2cnn(CC(=O)O)c2)cc1-c1nnnn1-c1cccc(F)c1F` [I-A-350] was 100 to 1000 nM; that for `CC(=O)N1CCC[C@@H]1C(=O)N1CC=C(c2cnc(N)c(-c3nnnn3-c3cccc(F)c3F)c2)CC1` [I-A-649] was 100 to 1000 nM.
In the case of `CN(C(=O)Nc1cccc(-c2cnc(N)c(-c3nnnn3-c3cccc(F)c3F)c2)c1)c1ccccc1` [I-A-274] it was 100 to 1000 nM; in that of `Nc1ncc(-c2cn(C3CCOCC3)nn2)cc1-c1nnnn1-c1cccc(F)c1F` [I-A-485], no more than 100 nM.
In the case of `Nc1ncc(-c2cnn(C3CCN(C(=O)N4CCCC4)CC3)c2)cc1-c1nnnn1-c1cccc(Cl)c1F` [I-A-443] it was no more than 100 nM; in that of `CN(C)Cc1ccc(-c2cnc(N)c(-c3nnnn3-c3cccc(F)c3F)c2)cc1` [I-A-63], no more than 100 nM.
In turn, `CC(=O)Nc1ccc(-c2cnc(N)c(-c3nnnn3-c3cc(F)cc(F)c3Cl)c2)cc1` [I-A-583] displayed an inhibition constant Ki of 100 to 1000 nM.
In the case of `Nc1ncc(-c2ccc(CN3CCCC3)cc2)cc1-c1nnnn1-c1c(F)ccc(Cl)c1F` [I-A-376] it was no more than 100 nM.
The value for `CC(=O)Nc1cccc(-c2cnc(N)c(-c3nnnn3-c3c(F)ccc(F)c3N)c2)c1` [I-A-383] was 100 to 1000 nM; that for `CC1CCC(C)N1Cc1ccc(-c2cnc(N)c(-c3nnnn3-c3cccc(F)c3F)c2)cc1` (centres unmarked) [I-A-210] was no more than 100 nM.
In the case of `Nc1ncc(-c2cn[nH]c2)cc1-c1nnnn1-c1cccc(F)c1F` [I-A-366] it was no more than 100 nM; in that of `Nc1ncc(-c2cnn(CC3COCO3)c2)cc1-c1nnnn1-c1cccc(F)c1F` (centres unmarked) [I-A-433], no more than 100 nM.
As to `Nc1ncc(C2=CCN(C(=O)[C@H]3CCC(=O)N3)CC2)cc1-c1nnnn1-c1cccc(F)c1F` [I-A-657], the Ki was no more than 100 nM.
The value for `NCc1ccc(-c2cnc(N)c(-c3nnnn3-c3cccc(F)c3F)c2)cn1` [I-A-155] was 100 to 1000 nM; that for `Nc1ncc(-c2cnn(C3CCN(C(=O)C(F)(F)F)CC3)c2)cc1-c1nnnn1-c1cccc(F)c1Cl` [I-A-395] was 100 to 1000 nM.
In turn, `Nc1ncc(-c2ccc(CN3CCCC3)cc2)cc1-c1nnnn1-c1cc(F)cc(F)c1Cl` [I-A-601] displayed an inhibition constant Ki of no more than 100 nM.
Compound `Nc1ncc(-c2ccc(-n3ccnc3)nc2)cc1-c1nnnn1-c1cccc(F)c1F` [I-A-128] showed a Ki of no more than 100 nM.
The value for `CN(C)Cc1cccc(-c2cnc(N)c(-c3nnnn3-c3cccc(Cl)c3Cl)c2)c1` [I-A-123] was no more than 100 nM.

What is called Ki is a dissociation constant, usually derived from enzyme kinetics or from competition with a known ligand.
